In the supplement of paper PMC4977894:
± gives the standard deviation of the averaged measurements.

What was measured:
[1] = test system: Homo sapiens (human subject panel, olfactory perception); assay: perceived odor intensity rating (rating 0-100); higher = stronger perceived smell
Summary of the method: (§1)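 Stimuli were molecules diluted in paraffin oil at high and low concentrations, with 1 mL of each sniffed in randomized order across ten visits of 100 stimuli. Participants were 55 healthy humans aged 18–50, excluding the six lowest performers. Subjects who smelled a stimulus moved a computerized slider away from its starting point of 50, and positions were rescaled to 0–100. Familiarity, intensity and pleasantness are each reported as an average over subjects.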

[2] = test system: Homo sapiens (human subject panel, olfactory perception); assay: perceived odor pleasantness rating (rating 0-100); higher = more pleasant
Summary of the method: as §1

[3] = test system: Homo sapiens (human subject panel, olfactory perception); assay: perceived odor familiarity rating (rating 0-100); higher = more familiar
Summary of the method: as §1

[4] = odor dilution in paraffin oil: 1/1,000
[5] = odor dilution in paraffin oil: 1/100,000
[6] = odor dilution in paraffin oil: 1/10
[7] = odor dilution in paraffin oil: 1/10,000,000

Row | Structure (SMILES) | perceived odor intensity rating [1, 4] | perceived odor intensity rating [1, 5] | perceived odor pleasantness rating [2, 4] | perceived odor pleasantness rating [2, 5] | perceived odor familiarity rating [3, 4] | perceived odor familiarity rating [3, 5] | perceived odor intensity rating [1, 6] | perceived odor pleasantness rating [2, 6] | perceived odor familiarity rating [3, 6] | perceived odor intensity rating [1, 7] | perceived odor pleasantness rating [2, 7] | perceived odor familiarity rating [3, 7]
1 | COC(=O)Cc1ccccc1 [Methyl phenylacetate] | 69.1 ± 25 | 58.1 ± 30 | 42.9 ± 30 | 42.3 ± 28 | 54 ± 30 | 49.6 ± 30 | – | – | – | – | – | –
2 | CS(C)(=O)=O [Methyl sulfone] | 22.7 ± 25 | – | 47.6 ± 20 | – | 39.4 ± 28 | – | 42.4 ± 32 | 61.1 ± 24 | 51.6 ± 29 | – | – | –
3 | C[S+](C)[O-] [Methyl sulfoxide] | 35.3 ± 31 | – | 32.1 ± 26 | – | 41.6 ± 29 | – | 50.7 ± 30 | 36.7 ± 24 | 41.7 ± 33 | – | – | –
4 | CCCC(=O)SC [Methyl thiobutyrate] | 92.4 ± 14 | 69.8 ± 26 | 4.96 ± 12 | 16.2 ± 22 | 50.2 ± 36 | 45.1 ± 32 | – | – | – | – | – | –
5 | CCCCCC/C=C/C(=O)OC [Methyl trans-2-nonenoate] | 49.1 ± 27 | 20.3 ± 22 | 50.3 ± 27 | 56.4 ± 17 | 53.4 ± 27 | 37.1 ± 26 | – | – | – | – | – | –
6 | CCCCC(=O)OC [Methyl valerate] | 65.2 ± 26 | 49.4 ± 30 | 42.4 ± 31 | 48.8 ± 28 | 55.1 ± 31 | 46.1 ± 28 | – | – | – | – | – | –
7 | CC1CCC(=O)C1=O (stereo not given) [Methylcyclopentenolone] | 72 ± 26 | – | 44.6 ± 30 | – | 52.5 ± 34 | – | 84.7 ± 18 | 35.8 ± 32 | 63 ± 33 | – | – | –
8 | CCCCCCCC(=O)OCCCCC [N-Amyl octanoate] | 37.1 ± 26 | 19.5 ± 28 | 48.4 ± 23 | 58.8 ± 24 | 42.3 ± 27 | 25.1 ± 28 | – | – | – | – | – | –
9 | CC(C)=CCC/C(C)=C\CO [Nerol] | 71.1 ± 22 | 24.3 ± 27 | 61.4 ± 24 | 48.8 ± 28 | 60.3 ± 30 | 39.8 ± 33 | – | – | – | – | – | –
10 | COc1ccc2ccccc2c1 [Nerolin Yara Yara] | 71.5 ± 22 | – | 61.6 ± 26 | – | 58 ± 26 | – | 82.7 ± 15 | 54.3 ± 29 | 59.7 ± 28 | – | – | –
11 | CC(=O)OC/C=C(/C)CCC=C(C)C [Neryl acetate] | 14.7 ± 20 | – | 43 ± 18 | – | 35.6 ± 28 | – | 67.2 ± 26 | 49.9 ± 26 | 49.1 ± 28 | – | – | –
12 | CCCCCCCCCOC(C)=O [Nonyl acetate] | 37.1 ± 28 | – | 39.9 ± 19 | – | 39 ± 30 | – | 77.8 ± 18 | 34.1 ± 27 | 46.8 ± 29 | – | – | –
13 | CC(=O)OCCC1=CCC2CC1C2(C)C (stereo not given) [Nopol acetate] | 53.6 ± 29 | 40.7 ± 28 | 70.6 ± 21 | 66.6 ± 25 | 54.9 ± 30 | 52.7 ± 31 | – | – | – | – | – | –
14 | CCCCCCCC [Octane] | 13.9 ± 20 | – | 44.1 ± 25 | – | 27.3 ± 26 | – | 59.6 ± 31 | 53.2 ± 25 | 46.3 ± 29 | – | – | –
15 | CCCCCCCC(=O)O [Octanoic acid] | 68.6 ± 26 | 49.5 ± 33 | 26.6 ± 19 | 35.2 ± 20 | 52.1 ± 33 | 45.3 ± 32 | – | – | – | – | – | –
16 | CCCCCCCCOC(=O)C(C)C [Octyl isobutyrate] | 29.9 ± 26 | 17.7 ± 20 | 55.8 ± 21 | 53.4 ± 20 | 38.9 ± 27 | 36 ± 31 | – | – | – | – | – | –
17 | CCCCCCCCOC(=O)CC(C)C [Octyl isovalerate] | 28.9 ± 33 | 23.4 ± 28 | 39.4 ± 22 | 54.1 ± 21 | 35.1 ± 30 | 38.3 ± 33 | – | – | – | – | – | –
18 | O=C1CCCCCCCCCCCCCCO1 [Omega-Pentadecalactone] | 23 ± 29 | – | 54.1 ± 23 | – | 32 ± 24 | – | 57 ± 27 | 73.5 ± 19 | 58.9 ± 28 | – | – | –

Row | Structure (SMILES) | perceived odor intensity rating [1, 4] | perceived odor intensity rating [1, 5] | perceived odor pleasantness rating [2, 4] | perceived odor pleasantness rating [2, 5] | perceived odor familiarity rating [3, 4] | perceived odor familiarity rating [3, 5] | perceived odor intensity rating [1, 6] | perceived odor pleasantness rating [2, 6] | perceived odor familiarity rating [3, 6] | perceived odor intensity rating [1, 7] | perceived odor pleasantness rating [2, 7] | perceived odor familiarity rating [3, 7]
19 | O=C(OCCc1ccccc1)c1ccco1 [Phenethyl 2-furoate] | 44.8 ± 31 | 24.1 ± 30 | 58.7 ± 25 | 50.6 ± 24 | 52.4 ± 37 | 40.5 ± 34 | – | – | – | – | – | –
20 | CC(=O)OCCc1ccccc1 [Phenethyl acetate] | 62.1 ± 28 | 38.2 ± 32 | 54.9 ± 28 | 56.9 ± 24 | 59.1 ± 32 | 52.2 ± 34 | – | – | – | – | – | –
21 | Nc1ccccc1C(=O)OCCc1ccccc1 [Phenethyl anthranilate] | 15.1 ± 20 | – | 48.2 ± 19 | – | 27.7 ± 23 | – | 39.9 ± 32 | 56.9 ± 24 | 50.1 ± 32 | – | – | –
22 | O=C(OCCc1ccccc1)c1ccccc1 [Phenethyl benzoate] | 19.6 ± 22 | – | 49.4 ± 17 | – | 24.1 ± 21 | – | 38 ± 27 | 53.6 ± 24 | 47.1 ± 31 | – | – | –
23 | O=C(Cc1ccccc1)OCCc1ccccc1 [Phenethyl phenylacetate] | 42.5 ± 33 | 17.2 ± 24 | 53.4 ± 23 | 52.9 ± 23 | 32.8 ± 26 | 31.6 ± 32 | – | – | – | – | – | –
24 | CCC(=O)OCCc1ccccc1 [Phenethyl propionate] | 49.9 ± 34 | 26.4 ± 27 | 54.6 ± 27 | 52.6 ± 25 | 54.6 ± 32 | 51.1 ± 30 | – | – | – | – | – | –
25 | O=C(OCCc1ccccc1)c1ccccc1O [Phenethyl salicylate] | 17.8 ± 25 | – | 49.2 ± 22 | – | 33.8 ± 29 | – | 37.3 ± 31 | 58.9 ± 22 | 38.8 ± 29 | – | – | –
26 | NCCc1ccccc1 [Phenethylamine] | 62.9 ± 34 | 22.8 ± 26 | 29.1 ± 28 | 48 ± 25 | 46.8 ± 34 | 38.8 ± 26 | – | – | – | – | – | –
27 | c1ccc(SSc2ccccc2)cc1 [Phenyl disulfide] | 61.2 ± 26 | 52.5 ± 30 | 26.6 ± 23 | 28.3 ± 25 | 47.2 ± 29 | 43.5 ± 29 | – | – | – | – | – | –
28 | C/C(=C\CO)CCC[C@H](C)CCC[C@H](C)CCCC(C)C [Phytol] | 19.8 ± 26 | – | 44.2 ± 30 | – | 25.4 ± 33 | – | 68.8 ± 26 | 28.1 ± 21 | 47.1 ± 32 | – | – | –
29 | C1CCNCC1 [Piperidine] | 76.5 ± 24 | 28.6 ± 31 | 13.2 ± 18 | 48.2 ± 24 | 53.6 ± 36 | 39.4 ± 29 | – | – | – | – | – | –
30 | O=C(/C=C/C=C/c1ccc2c(c1)OCO2)N1CCCCC1 [Piperine] | 19.4 ± 27 | – | 44.9 ± 29 | – | 20.9 ± 26 | – | 54.1 ± 29 | 51.5 ± 26 | 49.2 ± 31 | – | – | –
31 | CC(C)C(=O)OCc1ccc2c(c1)OCO2 [Piperonyl isobutyrate] | 29.4 ± 27 | 26.4 ± 30 | 48.3 ± 25 | 43.1 ± 18 | 38.4 ± 29 | 30.2 ± 25 | – | – | – | – | – | –
32 | CCCOC(=O)CC [Propyl propionate] | 72.1 ± 21 | 22.9 ± 25 | 44.4 ± 26 | 48.7 ± 25 | 50.4 ± 32 | 33.7 ± 27 | – | – | – | – | – | –
33 | CC(O)CO (stereo not given) [Propylene glycol] | 10.5 ± 13 | – | 42.5 ± 25 | – | 33.7 ± 29 | – | 45.8 ± 34 | 46.2 ± 25 | 52.2 ± 30 | – | – | –
34 | SCCc1cnccn1 [Pyrazineethanethiol] | – | 33.8 ± 38 | – | 45.4 ± 26 | – | 37.2 ± 33 | – | – | – | 23.6 ± 22 | 49.2 ± 20 | 29.8 ± 25
35 | C1CCNC1 [Pyrrolidine] | – | 26.9 ± 26 | – | 40.7 ± 19 | – | 28.9 ± 29 | – | – | – | 26.6 ± 24 | 37.5 ± 22 | 37.2 ± 27
